The target of the test is Cathepsin S (Homo sapiens, UniProt P25774). As to the kind of experiment: Cathepsin S inhibition, fluorogenic peptide substrate kinetic assay. The note with it: Table II; Cathepsin S inhibition constant, pH5.5; read-out: Ki Cat. S. Format: biochemical. From the text:
“Inhibition constant”, Ki, is the dissociation constant of the enzyme-inhibitor complex, or the reciprocal of the binding affinity of the inhibitor to the enzyme. […] The inhibited rates are then fit by nonlinear regression to the following equation: [formula]
where vo is the initial rate of substrate processing in the absence of inhibitor, v; is the initial rate of substrate processing at a concentration [I] of inhibitor, Km is the steady state Michaelis constant (Fersht, A. Structure and Mechanism in Protein Science. New York, W.H. Freeman and Company, 1999), and [S] is the concentration of competitive substrate.
The assumption being made for the classical inhibition described above is that the free inhibitor concentration is equal to the total inhibitor concentration.
The inhibition constant, Ki, can be determined from the apparent inhibition constant, Ki^app, for competitive inhibitors by using the following relationship: [formula]
The optimal substrate for cathepsin S, acetyl-histidine-proline-valine-lysine-amino carbamoyl coumarin, was identified from screening a combinatorial library of fluorogenic peptide substrates (Harris, J. L., B. J. Backes, et al., Proc Natl Acad Sci USA 2000, 97(14), 7754-9). Kinetic measurements are performed in a total reaction volume of 30 μl in 384-well microtiter plates. […] The reactions are initiated by adding the substrate, acetyl-histidine-proline-valine-lysine-amino carbamoyl coumarin, to a final concentration of 50 μM. The rate of substrate hydrolysis is measured by monitoring the increase in fluorescence at an excitation wavelength of 380 nm and an emission wavelength of 450 nm that results from cleavage of the aniline bond in the substrate by the enzyme. The apparent inhibition constants for the compounds are determined from the enzyme progress curves (Kuzmic, P., K. C. Elrod, et al., Anal Biochem 2000, 286(1), 45-50) and are then used to calculate the inhibition constants for competitive inhibitors.

As a reminder, the Ki is a dissociation constant, usually derived from enzyme kinetics or from competition with a known ligand.

Some results are limits rather than exact numbers.

Sequence of Cathepsin S (P25774 115-331, species assumed): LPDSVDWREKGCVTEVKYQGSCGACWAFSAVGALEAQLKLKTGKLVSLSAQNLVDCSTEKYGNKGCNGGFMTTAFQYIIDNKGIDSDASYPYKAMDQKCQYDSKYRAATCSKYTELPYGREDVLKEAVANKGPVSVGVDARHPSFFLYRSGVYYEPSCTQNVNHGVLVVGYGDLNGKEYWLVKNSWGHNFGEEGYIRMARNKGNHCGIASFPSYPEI

In the case of `O=C(N[C@@H](CC1CCCCC1)C(=O)NCCN1CCc2cc(F)ccc21)C1CCN(C(=O)c2ccccc2)CC1` [Compound 5, 1-Benzoyl-piperidine-4-carboxylic acid (S)-{2-cyclohexyl-1-[2-(5-fluoro-2,3-dihydro-indol-1-yl)-ethylcarbamoyl]-ethyl}-amide], the Ki is below 1 µM.
Consider `CC(C)(C)OC(=O)N[C@@H](CC1CCCCC1)C(=O)N[C@@H](CC(=O)OCc1ccccc1)CN1CCc2cc(F)ccc21` [Compound 261, (S,S)-3-(2-tert-Butoxycarbonylamino-3-cyclohexyl-propionylamino)-4-(5-fluoro-2,3-dihydro-indol-1-yl)-butyric acid benzyl ester], for which the Ki was below 0.1 µM.
On to `O=C(NCCN1CCc2cc(F)ccc21)[C@H](CC1CCCCC1)NS(=O)(=O)c1ccc(OC(F)F)cc1` [Compound 240, (S)-3-Cyclohexyl-2-(4-difluoromethoxy-benzenesulfonylamino)-N-[2-(5-fluoro-2,3-dihydro-indol-1-yl)-ethyl]-propionamide], for which the Ki is below 1 µM.
As for `COc1ccc(S(=O)(=O)N2CCC(C(=O)N[C@@H](CC3CCCCC3)C(=O)NCCN3CCc4cc(F)ccc43)CC2)cc1` [Compound 57, 1-(4-Methoxy-benzenesulfonyl)-piperidine-4-carboxylic acid (S)-{2-cyclohexyl-1-[2-(5-fluoro-2,3-dihydro-indol-1-yl)-ethylcarbamoyl]-ethyl}-amide], the Ki is below 1 µM.
With `C[C@@H](CNc1ccc(OC(F)F)cc1)NC(=O)[C@H](CC(C)(C)C)NC(=O)c1ccc(-c2cccc(F)c2)o1` [Compound 128, 5-(3-Fluoro-phenyl)-furan-2-carboxylic acid {1-(S)-[2-(4-difluoromethoxy-phenylamino)-1-(S)-methyl-ethylcarbamoyl]-3,3-dimethyl-butyl}-amide] the figure was below 0.1 µM.
As for `C[C@@H](CNc1ccc(OCc2ccccc2)cc1)NC(=O)[C@H](CC1CCCCC1)NC(=O)c1ccc(-c2cccc(F)c2)o1` [Compound 266, 5-(3-Fluoro-phenyl)-furan-2-carboxylic acid {1-(S)-[2-(4-benzyloxy-phenylamino)-1-(S)-methyl-ethylcarbamoyl]-2-cyclohexyl-ethyl}-amide], the figure is below 0.1 µM.
Take `O=C(N[C@@H](CC1CCCCC1)C(=O)NCCN1CCc2cc(F)ccc21)C1CCN(c2ccc(Cl)nn2)CC1` [Compound 56, 1-(6-Chloro-pyridazin-3-yl)-piperidine-4-carboxylic acid (S)-{2-cyclohexyl-1-[2-(5-fluoro-2,3-dihydro-indol-1-yl)-ethylcarbamoyl]-ethyl}-amide]: the Ki is below 1 µM.
Regarding `O=C(N[C@@H](CC1CCCCC1)C(=O)NCCN1CCc2cc(F)ccc21)c1ccc(OC2CCNCC2)cc1` [Compound 67, N-(S)-{2-cyclohexyl-1-[2-(5-fluoro-2,3-dihydro-indol-1-yl)-ethylcarbamoyl]-ethyl}-4-(piperidin-4-yloxy)-benzamide], the Ki was below 1 µM.
As for `C[C@@H](CNc1ccc(OC(F)(F)F)cc1)NC(=O)[C@H](CC1CCCCC1)NC(=O)OC1CCOCC1` [Compound 184, (S,S)-{2-Cyclohexyl-1-[1-methyl-2-(4-trifluoromethoxy-phenylamino)-ethylcarbamoyl]-ethyl}-carbamic acid tetrahydro-pyran-4-yl ester], the figure is below 0.1 µM; as for `C[C@@H](CNc1c(F)cccc1F)NC(=O)[C@H](CC1CCCCC1)NC(=O)c1ccc(-c2cccc(F)c2)o1` [Compound 92, 5-(3-Fluoro-phenyl)-furan-2-carboxylic acid {2-cyclohexyl-1-(S)-[2-(2,6-difluoro-phenylamino)-1-(S)-methyl-ethylcarbamoyl]-ethyl}-amide], below 0.1 µM.
With `COc1cccc(C(=O)N[C@@H](CC2CCCCC2)C(=O)N[C@@H](CC(=O)O)CN2CCc3cc(F)ccc32)c1` [Compound 162, 3-(S)-[3-Cyclohexyl-2-(S)-(3-methoxy-benzoylamino)-propionylamino]-4-(5-fluoro-2,3-dihydro-indol-1-yl)-butyric acid], the inhibition constant (Ki) was below 0.1 µM.
As for `O=C(NCCN1CCc2cc(F)ccc21)[C@H](CC1CCCCC1)NS(=O)(=O)c1ccc(C(F)(F)F)cc1` [Compound 229, (S)-3-Cyclohexyl-N-[2-(5-fluoro-2,3-dihydro-indol-1-yl)-ethyl]-2-(4-trifluoromethyl-benzenesulfonylamino)-propionamide], the Ki is below 1 µM.
With `C[C@@H](CNc1cccc(-c2nnn[nH]2)c1)NC(=O)[C@H](CC1CCCCC1)NC(=O)OCc1ccccc1` [Compound 180, (2-Cyclohexyl-1-(S)-{1-(S)-methyl-2-[3-(1H-tetrazol-5-yl)-phenylamino]-ethylcarbamoyl}-ethyl)-carbamic acid benzyl ester] the figure was below 1 µM; with `C[C@@H](CNc1ccc(S(=O)(=O)N2CCOCC2)cc1)NC(=O)[C@H](CC1CCCCC1)NC(=O)c1ccc(-c2cccc(F)c2)o1` [Compound 136, 5-(3-Fluoro-phenyl)-furan-2-carboxylic acid (2-cyclohexyl-1-(S)-{1-(S)-methyl-2-[4-(morpholine-4-sulfonyl)-phenylamino]-ethylcarbamoyl}-ethyl)-amide], below 1 µM; with `O=C(NCCN1CCc2cc(F)ccc21)[C@H](CC1CCCCC1)NS(=O)(=O)c1cc2ccccc2s1` [Compound 234, (S)-2-(Benzo[b]thiophene-2-sulfonylamino)-3-cyclohexyl-N-[2-(5-fluoro-2,3-dihydro-indol-1-yl)-ethyl]-propionamide], below 1 µM.
With `O=C(NCCN1CCc2cc(F)ccc21)[C@H](CC1CCCCC1)NS(=O)(=O)c1cccs1` [Compound 235, (S)-3-Cyclohexyl-N-[2-(5-fluoro-2,3-dihydro-indol-1-yl)-ethyl]-2-(thiophene-2-sulfonylamino)-propionamide] the figure was below 1 µM; with `CS(=O)(=O)N[C@@H](CC1CCCCC1)C(=O)NCCN1CCc2cc(F)ccc21` [Compound 249, (S)-3-Cyclohexyl-N-[2-(5-fluoro-2,3-dihydro-indol-1-yl)-ethyl]-2-methanesulfonylamino-propionamide], below 10 µM; with `C[C@@H](CNc1ccc(O)cc1)NC(=O)[C@H](CC1CCCCC1)NC(=O)c1ccc(-c2cccc(F)c2)o1` [Compound 125, 5-(3-Fluoro-phenyl)-fuiran-2-carboxylic acid {2-cyclohexyl-1-(S)-[2-(4-hydroxy-phenylamino)-1-(S)-methyl-ethylcarbamoyl]-ethyl}-amide], below 0.1 µM.
As to `C[C@@H](CNc1ccc(OC(F)(F)F)cc1)NC(=O)[C@H](CC(C)(C)C)NC(=O)[C@H]1CCCO1` [Compound 268, Tetrahydrofuran-2-(R)-carboxylic acid {3,3-dimethyl-1-(S)-[1-(S)-methyl-2-(4-trifluoromethoxy-phenylamino)-ethylcarbamoyl]-butyl}-amide], the inhibition constant (Ki) was below 10 µM.
As for `Cc1cc(C(=O)N[C@@H](CC2CCCCC2)C(=O)NCCN2CCc3cc(F)ccc32)c(C(F)(F)F)o1` [Compound 78, 5-Methyl-2-trifluoromethyl-furan-3-carboxylic acid (S)-{2-cyclohexyl-1-[2-(5-fluoro-2,3-dihydro-indol-1-yl)-ethylcarbamoyl]-ethyl}-amide], the figure is below 0.1 µM.
Take `COc1ccc(NC[C@H](C)NC(=O)[C@H](CCC2CCCCC2)NC(=O)c2ccc(-c3cccc(C(F)(F)F)c3)o2)cc1` [Compound 27, 5-(3-Trifluoromethyl-phenyl)-furan-2-carboxylic acid {3-cyclohexyl-(1S)-[2-(4-methoxy-phenylamino)-(1S)-methyl-ethylcarbamoyl]-propyl}-amide]: the inhibition constant (Ki) is below 0.1 µM.
Regarding `O=C(N[C@@H](CC1CCCCC1)C(=O)N[C@@H](COCc1ccccc1)CN1CCc2cc(F)ccc21)OCc1ccccc1` [Compound 169], the Ki is below 0.1 µM.
As for `COc1ccc(N2CCC[C@@H](NC(=O)[C@H](CC(C)C)NC(=O)c3cccc(C)c3)C2)cc1` (single isomer, unassigned) [Compound 32], the figure is below 10 µM; as for `C[C@@H](CNc1ccc(OC(F)(F)F)cc1)NC(=O)[C@H](CC1CCCCC1)NC(=O)C1CCOC1` (mixture of isomers) [Compound 272, Tetrahydrofuran-3-(R,S)-carboxylic acid {2-cyclohexyl-1-(S)-[1-(S)-methyl-2-(4-trifluoromethoxy-phenylamino)-ethylcarbamoyl]-ethyl}-amide], below 0.1 µM.
With `COc1cccc(C(=O)N[C@@H](CCC2CCCCC2)C(=O)NCCN2CCc3cccc(F)c32)c1` [Compound 11, (S)-N-{3-Cyclohexyl-1-[2-(7-fluoro-2,3-dihydro-indol-1-yl)-ethylcarbamoyl]-propyl}-3-methoxy-benzamide] the figure was below 10 µM; with `COc1ccc(NC[C@H](COCc2ccccc2)NC(=O)[C@H](CC(C)C)NC(=O)c2cccc(C)c2)cc1` [Compound 35, N-{1-(S)-[1-(R)-Benzyloxymethyl-2-(4-methoxy-phenylamino)-ethylcarbamoyl]-3-methyl-butyl}-3-methyl-benzamide], below 0.1 µM.

The record behind these values is US20040248887A1, “Inhibitors of cathepsin S” (IRM LLC, priority 2003, published 2004).
